{"source": "patent US20130071330A1", "about": "“METHODS OF IDENTIFYING AGENTS EFFECTIVE TO TREAT COGNITIVE DECLINE AND DISEASES ASSOCIATED THEREWITH” (priority 2010, published 2013)", "key": {"[1]": {"test_system": "Abeta oligomer effects on membrane trafficking", "experiment": "MTT membrane trafficking (formazan exocytosis) assay with Abeta oligomers in mature primary neurons", "type": "cell-based, rat", "details": "for block of Abeta oligomer-caused decrease of intracellular formazan-filled vesicles (puncta): neurons 3 weeks in vitro, for antibody stoichiometric amount (3 μM Aβ, 1.5 μM IgG), added prior to oligomers", "experimental": "(§1) MTT assay Primary neurons from E18 Sprague-Dawley rat embryos were plated at optimized concentrations in 384 well plates in NB media (Invitrogen). Neurons were maintained in cultures for 3 weeks, with twice weekly feeding of NB media with N2 supplement (Invitrogen). Vehicle or Abeta oligomer preparations (1.5 uM), followed by compounds were added to cells and incubated for 1 to 24 hr at 37° C. in 5% CO2. MTT reagent (3-(4,5-dimethylthizaol-2-yl)-2,5diphenyl tetrazolium bromide) reagent (Roche Molecular Biochemicals) was reconstituted in phosphate buffered saline to 5 mg/ml. 10 ul of MTT labeling reagent was added to each well and incubated at 37° C. for 1 h, then imaged.\nEach assay plate was formatted so that compounds were tested with and without Abeta on each plate.\nExperimental controls: Abeta 1-42 oligomers were made and used as positive controls. The oligomers can be made by any method, such as published methods (Dhalgren et al., '02, LeVine '04, Shrestha et al., '06, Puzzo et al., '05, Barghorn et al., '05, Johansson et al., '06). […] Negative controls included vehicle-treated neurons as well as neurons treated with Compound Z. These controls, on each plate, serve as normalization tools to calibrate assay performance on a plate-by-plate basis.\nStatistical software and Analysis: Data handling and analysis was accomplished by Cellomics VTI image analysis software and STORE automated database software. Statistical comparisons were made via pairwise Tukey-Kramer analysis to determine the significance of the separation between compound+Abeta oligomers from Abeta alone, and between compound alone from vehicle. […] Power analysis was set for a number of replicate screening wells that will minimize false negatives such as N=4. Rank ordering of compounds was done on the basis of secondary assay mechanism of action and physicochemical properties of the hit structures.\nAbeta 1-42 oligomers made according to published methods (Dhalgren et al., '02, LeVine '04, Shrestha et al., '06, Puzzo et al., '05, Barghorn et al., '05, Johansson et al., '06) or isolated from human brain tissue (Walsh et al., '02, Lesne et al., '06, Shankar et al '08) served as positive controls. Toxicity was monitored in each image-based assay via quantification of nuclear morphology visualized with the DNA binding dye DAPI (Invitrogen). Nuclei that were fragmented were considered to be in late stage apoptosis (Majno and Joris '95). Peptide lots producing unusual peptide size ranges or significant toxicity at standard concentrations on neurons were rejected.\nImage Processing: Images are captured and analyzed with the Cellomics VTI automated microscope platform. For statistical analysis, a Tukey-Kramer pair-wise comparison with unequal variance is used.\nPrimary rat neurons grown for at least 3 weeks in vitro were chosen as the basis for this screening assay. […] More complex systems such as acute or organotypic brain slices are very useful but not amenable to high throughput screening. […] For this reason, primary neuronal cultures were chosen because of their ability to be used in high throughput screens and fidelity to what occurs in vivo.\nThe exocytosis assay was adapted for use with mature primary neuronal cultures grown for 3 weeks in vitro."}, "[2]": {"test_system": "Abeta assemblies isolated from patients, membrane trafficking", "experiment": "Membrane trafficking assay with Abeta assemblies isolated from AD or normal patients", "type": "cell-based, rat", "details": "FIG. 4", "experimental": "as §1\nAbeta assemblies were isolated from patients with Alzheimer's Disease (AD) or from normal patients. The Abeta assemblies were tested for their ability to modulate membrane trafficking. […] The assay was performed as described herein."}, "mice": {"test_system": "mice", "experiment": "Fear conditioning assay (Abeta oligomer-induced memory deficit)", "type": "in vivo", "excerpt": "The formation of contextual memories is dependent upon the integrity of medial temporal lobe structures such as the hippocampus. […] Animals that show good learning will express an increase in freezing behavior when placed back into the same context. This freezing is absent in a novel context."}}, "note": "Entries after “also recorded” stand apart in the source; their conditions may differ."}
{"smiles": "C[C@]12N[C@H](Cc3ccccc31)c1ccccc12", "note": "[MK-801, reference compound]", "values": [{"measurement": "block of Abeta oligomer-caused decrease of intracellular formazan-filled vesicles (puncta)", "setting": "[1]", "result": "none were active"}]}
{"smiles": "O[C@H]1[C@H](O)[C@@H](O)[C@H](O)[C@@H](O)[C@@H]1O", "note": "[scyllo-inositol, reference compound]", "values": [{"measurement": "block of Abeta oligomer-caused decrease of intracellular formazan-filled vesicles (puncta)", "setting": "[1]", "result": "none were active"}]}
{"smiles": "COc1cc(CCC(C)NCc2ccc(C(F)(F)F)cc2)ccc1O", "note": "(centres unmarked) [Compound Z]", "values": [{"measurement": "effect on Abeta assemblies isolated from age-matched normal individuals", "setting": "[2]; Abeta assemblies from age-matched normal individuals", "result": "no effect"}, {"measurement": "block of trafficking effects of AD-brain derived Abeta assemblies", "setting": "[2]; IMW (10-100 KDa) Abeta assemblies isolated from AD patients", "result": "significantly blocked"}, {"measurement": "EC50", "setting": "[1]; Neuron, read-out: inhibits oligomer effects on membrane trafficking, EC50, primary rat neurons, Abeta oligomers, FIG. 2B", "result": 7, "unit": "µM"}, {"measurement": "block of Abeta oligomer-caused decrease of intracellular formazan-filled vesicles (puncta)", "setting": "[1]", "result": "inhibits oligomer effects on membrane trafficking; also recorded: effective at stopping Abeta oligomer mediated effects on membrane trafficking"}, {"measurement": "block of oligomer-mediated memory deficits (contextual fear conditioning)", "setting": "mice; 2 pmol dose, given prior to Abeta (200 nM), tested about 24 hours after training, p<0.05", "result": "completely blocked"}, {"measurement": "block of oligomer effects on memory, dose dependence", "setting": "mice; administered prior to Abeta oligomer administration", "result": "blocked oligomer effects on memory in a dose-dependent manner"}, {"measurement": "adverse behavioral changes", "setting": "mice; any dose", "result": "No adverse behavioral changes were observed"}, {"measurement": "effect of compound alone on memory", "setting": "mice; without Abeta, data not shown", "result": "No effect"}]}
{"smiles": "C[N+](C)(C)CCCCCC[N+](C)(C)C", "note": "[hexamethonium bromide, reference compound]", "values": [{"measurement": "block of Abeta oligomer-caused decrease of intracellular formazan-filled vesicles (puncta)", "setting": "[1]", "result": "none were active"}]}
